Source: patent publication US20230167105A1, “BCL-2 PROTEIN INHIBITORS” (Recurium IP Holdings, LLC, priority 2020, published 2023)

System: MOLT-4 cells
Assay: MOLT-4 Cell Proliferation Assay (CellTiter-Glo)
Assay type: cell-based
Settings: Homo sapiens, 72 h, read-out: MOLT-4 CTG IC50
Experimental: Cell proliferation was measured using the CellTiter-Glo® Luminescent Cell Viability Assay. The assay involved the addition of a single reagent (CellTiter-Glo® Reagent) directly to cells cultured in serum-supplemented medium. MOLT-4 cells (ATCC, CRL-1582) were cultured according to ATCC recommendations and were seeded at 50,000 cells per well.
Each compound evaluated was prepared as a DMSO stock solution (10 mM). Compounds were tested in duplicate on each plate, with a 10-point serial dilution curve (1:3 dilution). The highest compound concentration was 10 μM (final), with a 0.1% final DMSO concentration. Plates were then incubated at 37° C., 5% CO2 for 72 h, cell plates were equilibrated at rt for approximately 30 mins. An equi-volume amount of CellTiter-Glo® Reagent (100 μL) was added to each well. Plates were mixed for 2 mins on an orbital shaker to induce cell lysis and then incubated at rt for 10 mins to stabilize the luminescent signal. Luminescence was recorded using a Envision plate reader according to CellTiter-Glo protocol. IC50 of each compound was calculated using GraphPad Prism by nonlinear regression analysis.

Structure (SMILES) | IC50
CCC12CC(C3=C(CN4CCN(c5ccc(C(=O)NS(=O)(=O)c6ccc(N[C@H](CCN7CCN(C(=O)CCCCCC(=O)N[C@H](C(=O)N8C[C@H](O)C[C@H]8C(=O)N[C@@H](C)c8ccc(-c9scnc9C)cc8)C(C)(C)C)CC7)CSc7ccccc7)c(S(=O)(=O)C(F)(F)F)c6)cc5)CC4)CCC(C)(C)C3)(C1)C2 [Example 14, (2S,4R)-1-((S)-2-(7-(4-((R)-3-((4-(N-(4-(4-((2-(3-ethylbicyclo[1.1.1]pentan-1-yl)-4,4-dimethylcyclohex-1-en-1-yl)methyl)piperazin-1-yl)benzoyl)sulfamoyl)-2-((trifluoromethyl)sulfonyl)phenyl)amino)-4-(phenylthio)butyl)piperazin-1-yl)-7-oxoheptanamido)-3,3-dimethylbutanoyl)-4-hydroxy-N—((S)-1-(4-(4-methylthiazol-5-yl)phenyl)ethyl)pyrrolidine-2-carboxamide] | 50 to 150 nM
CC1(C)CCC(CN2CCN(c3ccc(C(=O)NS(=O)(=O)c4ccc(N[C@H](CCN5CCN(CCCCc6ccc7c(c6)C(=O)N(C6CCC(=O)NC6=O)C7=O)CC5)CSc5ccccc5)c(S(=O)(=O)C(F)(F)F)c4)cc3)CC2)=C(C23CC(C(F)F)(C2)C3)C1 (stereo partly drawn) [Example 17, 4-(4-((2-(3-(difluoromethyl)bicyclo[1.1.1]pentan-1-yl)-4,4-dimethylcyclohex-1-en-1-yl)methyl)piperazin-1-yl)-N-((4-(((2R)-4-(4-(4-(2-(2,6-dioxopiperidin-3-yl)-1,3-dioxoisoindolin-5-yl)butyl)piperazin-1-yl)-1-(phenylthio)butan-2-yl)amino)-3-((trifluoromethyl)sulfonyl)phenyl)sulfonyl)benzamide] | ≤ 50 nM
CC1(C)CCC(CN2CCN(c3ccc(C(=O)NS(=O)(=O)c4ccc(N[C@H](CCN5CCN(CCCCc6ccc7c(c6)CN(C6CCC(=O)NC6=O)C7=O)CC5)CSc5ccccc5)c(S(=O)(=O)C(F)(F)F)c4)cc3)CC2)=C(C23CC(C(F)F)(C2)C3)C1 (stereo partly drawn) [Example 18, 4-(4-((2-(3-(difluoromethyl)bicyclo [1.1.1]pentan-1-yl)-4,4-dimethylcyclohex-1-en-1-yl)methyl)piperazin-1-yl)-N-((4-(((2R)-4-(4-(4-(2-(2,6-dioxopiperidin-3-yl)-1-oxoisoindolin-5-yl)butyl)piperazin-1-yl)-1-(phenylthio)butan-2-yl)amino)-3-((trifluoromethyl)sulfonyl)phenyl)sulfonyl)benzamide] | ≤ 50 nM

Further lines, results first:

IC50 | Structure (SMILES)
50 to 150 nM | CC1(C)CCC(CN2CCN(c3ccc(C(=O)NS(=O)(=O)c4ccc(N[C@H](CCN5CCN(CCCCCNc6cccc7c6CN(C6CCC(=O)NC6=O)C7=O)CC5)CSc5ccccc5)c(S(=O)(=O)C(F)(F)F)c4)cc3)CC2)=C(C23CC(C(F)F)(C2)C3)C1 (stereo partly drawn) [Example 15, 4-[4-[[2-[3-(difluoromethyl)-1-bicyclo[1.1.1]pentanyl]-4,4-dimethyl-cyclohexen-1-yl]methyl]piperazin-1-yl]-N-[4-[[(1R)-3-[4-[5-[[2-(2,6-dioxo-3-piperidyl)-1-oxo-isoindolin-4-yl]amino]pentyl]piperazin-1-yl]-1-(phenylsulfanylmethyl)propyl]amino]-3-(trifluoromethylsulfonyl)phenyl]sulfonyl-benzamide]
50 to 150 nM | CN(CCCNc1cccc2c1C(=O)N(C1CCC(=O)NC1=O)C2=O)CC[C@H](CSc1ccccc1)Nc1ccc(S(=O)(=O)NC(=O)c2ccc(N3CCN(CC4=C(C56CC(C(F)F)(C5)C6)CC(C)(C)CC4)CC3)cc2)cc1S(=O)(=O)C(F)(F)F (stereo partly drawn) [Example 19, 4-(4-((2-(3-(difluoromethyl)bicyclo[1.1.1]pentan-1-yl)-4,4-dimethylcyclohex-1-en-1-yl)methyl)piperazin-1-yl)-N-((4-(((2R)-4-((3-((2-(2,6-dioxopiperidin-3-yl)-1,3-dioxoisoindolin-4-yl)amino)propyl)(methyl)amino)-1-(phenylthio)butan-2-yl)amino)-3-((trifluoromethyl)sulfonyl)phenyl)sulfonyl)benzamide]
